Test results published in patent US12227500B2, “Substituted pyrrolo[2,3-b]pyridines for suppressing toxic endoplasmic reticulum stress” (THE TRUSTEES OF COLUMBIA UNIVERSITY IN THE CITY OF NEW YORK, priority 2018, dated 2025).
Like-named read-outs stand apart in the source and are kept apart here.

How the values were obtained:
MLK1/MAP3K9 = molecular target: T1, MLK1/MAP3K9 (Homo sapiens, UniProt P80192); experiment: Radiolabeled ATP kinase assay (Reaction Biology Corp.), MLK1; type: biochemical; conditions: [Cmpd] 0.1 μM, 10 μM ATP
T1 construct: purchased Reaction Biology Corp
T1 sequence (P80192 whole entry): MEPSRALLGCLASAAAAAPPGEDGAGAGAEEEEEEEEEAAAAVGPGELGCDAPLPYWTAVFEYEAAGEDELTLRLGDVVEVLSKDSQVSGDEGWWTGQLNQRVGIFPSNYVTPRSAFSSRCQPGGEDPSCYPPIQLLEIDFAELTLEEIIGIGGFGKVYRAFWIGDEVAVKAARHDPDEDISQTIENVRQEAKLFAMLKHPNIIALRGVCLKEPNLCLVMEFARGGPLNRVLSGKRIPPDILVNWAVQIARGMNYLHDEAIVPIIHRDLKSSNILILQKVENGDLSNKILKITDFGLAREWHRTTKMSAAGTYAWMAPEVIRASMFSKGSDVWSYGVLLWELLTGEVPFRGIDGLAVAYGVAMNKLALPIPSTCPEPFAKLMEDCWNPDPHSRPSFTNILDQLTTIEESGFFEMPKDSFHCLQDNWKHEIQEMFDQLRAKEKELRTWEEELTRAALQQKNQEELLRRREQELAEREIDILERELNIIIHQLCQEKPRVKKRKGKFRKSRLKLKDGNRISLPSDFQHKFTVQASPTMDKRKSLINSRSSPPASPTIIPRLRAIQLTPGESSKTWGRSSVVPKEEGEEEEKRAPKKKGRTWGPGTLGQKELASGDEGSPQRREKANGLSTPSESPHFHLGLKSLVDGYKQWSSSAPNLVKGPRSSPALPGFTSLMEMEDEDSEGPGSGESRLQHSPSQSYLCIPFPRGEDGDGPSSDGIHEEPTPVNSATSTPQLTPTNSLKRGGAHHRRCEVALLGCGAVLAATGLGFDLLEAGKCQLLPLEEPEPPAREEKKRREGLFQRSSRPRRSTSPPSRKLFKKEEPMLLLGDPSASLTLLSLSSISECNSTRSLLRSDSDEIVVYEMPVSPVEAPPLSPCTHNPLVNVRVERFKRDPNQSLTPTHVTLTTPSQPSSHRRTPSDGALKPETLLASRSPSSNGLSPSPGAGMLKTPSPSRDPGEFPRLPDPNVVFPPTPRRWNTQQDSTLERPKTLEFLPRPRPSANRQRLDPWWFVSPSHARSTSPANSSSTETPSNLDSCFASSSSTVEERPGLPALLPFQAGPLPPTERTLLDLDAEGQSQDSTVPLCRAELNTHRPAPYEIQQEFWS
Method: (§1) Meanwhile, the same analogs were analyzed in a radiolabeled ATP assay (10 μM ATP; Reaction Biology Corp.) to compare the extent to which they could inhibit the activity of HGK, MLK1, or MLK3 in a cell-free environment (Table S3 and S4).

MLK3/MAP3K11 = molecular target: T2, MLK3/MAP3K11 (Homo sapiens, UniProt Q16584); experiment: Radiolabeled ATP kinase assay (Reaction Biology Corp.), MLK3; type: biochemical; conditions: [Cmpd] 0.1 μM; 10 μM ATP
T2 construct: purchased Reaction Biology Corp
T2 sequence (Q16584 whole entry): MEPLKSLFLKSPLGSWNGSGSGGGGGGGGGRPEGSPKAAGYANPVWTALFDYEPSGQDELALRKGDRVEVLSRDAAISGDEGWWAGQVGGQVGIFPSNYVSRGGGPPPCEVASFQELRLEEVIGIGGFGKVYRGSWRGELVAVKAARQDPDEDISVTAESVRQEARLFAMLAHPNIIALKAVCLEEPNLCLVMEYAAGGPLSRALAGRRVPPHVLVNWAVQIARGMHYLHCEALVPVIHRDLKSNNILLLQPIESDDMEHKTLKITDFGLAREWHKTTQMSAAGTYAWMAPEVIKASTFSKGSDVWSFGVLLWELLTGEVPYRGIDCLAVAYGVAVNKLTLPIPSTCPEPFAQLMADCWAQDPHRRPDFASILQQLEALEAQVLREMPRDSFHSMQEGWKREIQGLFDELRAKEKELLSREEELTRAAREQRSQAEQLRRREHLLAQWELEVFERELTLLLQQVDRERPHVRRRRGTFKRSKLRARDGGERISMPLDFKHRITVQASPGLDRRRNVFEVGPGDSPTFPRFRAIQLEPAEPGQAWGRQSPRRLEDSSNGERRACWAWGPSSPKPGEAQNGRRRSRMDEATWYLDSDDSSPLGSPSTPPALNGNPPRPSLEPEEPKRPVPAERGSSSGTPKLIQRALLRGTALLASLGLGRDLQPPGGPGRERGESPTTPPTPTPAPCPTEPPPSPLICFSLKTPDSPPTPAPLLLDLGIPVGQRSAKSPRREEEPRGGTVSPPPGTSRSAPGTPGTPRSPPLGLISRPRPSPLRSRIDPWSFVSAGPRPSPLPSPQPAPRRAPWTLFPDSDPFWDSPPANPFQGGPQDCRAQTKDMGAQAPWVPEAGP
Method: as §1

HGK/MAP4K4 = HGK/MAP4K4 (Homo sapiens, UniProt O95819); experiment: Radiolabeled ATP kinase assay (Reaction Biology Corp.), HGK; type: biochemical; parameters: purchased Reaction Biology Corp; conditions: 10 μM ATP, read-out: % Enzyme Activity (relative to DMSO controls), HGK/MAP4K4, Data 1; for remaining activity at 0.025 µM: [Cmpd] 0.025 μM; for remaining activity at 0.1 µM: [Cmpd] 0.1 μM
HGK/MAP4K4, sequence (O95819 whole entry): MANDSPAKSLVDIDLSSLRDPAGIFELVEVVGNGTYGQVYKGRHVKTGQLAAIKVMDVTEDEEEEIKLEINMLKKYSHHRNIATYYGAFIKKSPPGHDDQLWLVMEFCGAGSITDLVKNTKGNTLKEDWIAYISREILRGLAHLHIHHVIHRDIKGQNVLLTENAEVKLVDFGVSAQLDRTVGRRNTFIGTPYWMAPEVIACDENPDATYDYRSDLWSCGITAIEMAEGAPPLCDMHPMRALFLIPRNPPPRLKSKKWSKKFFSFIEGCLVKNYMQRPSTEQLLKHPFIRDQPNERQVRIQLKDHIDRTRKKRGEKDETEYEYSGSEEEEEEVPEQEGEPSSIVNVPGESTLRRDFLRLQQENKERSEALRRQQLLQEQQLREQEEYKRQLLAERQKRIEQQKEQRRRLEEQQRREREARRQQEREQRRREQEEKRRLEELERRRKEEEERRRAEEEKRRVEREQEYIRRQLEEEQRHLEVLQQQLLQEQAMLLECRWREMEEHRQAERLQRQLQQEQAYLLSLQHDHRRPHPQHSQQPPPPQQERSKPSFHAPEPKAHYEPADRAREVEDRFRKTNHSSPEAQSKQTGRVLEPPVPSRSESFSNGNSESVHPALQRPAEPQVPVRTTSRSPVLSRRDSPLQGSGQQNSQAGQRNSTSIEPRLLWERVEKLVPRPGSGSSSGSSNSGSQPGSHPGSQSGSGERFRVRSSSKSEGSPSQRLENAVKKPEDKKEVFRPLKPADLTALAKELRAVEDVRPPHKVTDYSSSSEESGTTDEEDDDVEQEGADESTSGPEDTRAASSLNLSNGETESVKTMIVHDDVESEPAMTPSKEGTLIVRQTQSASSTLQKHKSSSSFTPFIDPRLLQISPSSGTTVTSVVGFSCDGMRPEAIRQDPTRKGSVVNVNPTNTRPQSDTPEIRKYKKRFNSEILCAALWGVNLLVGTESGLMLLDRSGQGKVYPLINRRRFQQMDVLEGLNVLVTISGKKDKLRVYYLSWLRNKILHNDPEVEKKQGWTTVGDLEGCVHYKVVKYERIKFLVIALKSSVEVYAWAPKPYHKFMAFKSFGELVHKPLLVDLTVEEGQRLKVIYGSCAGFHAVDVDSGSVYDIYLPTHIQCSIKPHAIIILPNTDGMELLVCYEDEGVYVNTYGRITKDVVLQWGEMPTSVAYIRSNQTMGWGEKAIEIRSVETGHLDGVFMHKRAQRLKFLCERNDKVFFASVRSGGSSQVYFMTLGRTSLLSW
Method: as §1

[1] = system: human ES motor neurons carrying the ALS-causing SOD1^A4V mutation; experiment: cells; type: cell-based; conditions: 72 h, 72 h; for EC50 / Emax: CPA 33 μM; for viability at 1 µM: CPA (33 μM) + compound (1 μM), read-out: Motor Neuron Survival, % untreated; for Emax: read-out: Emax (MN survival % untreated)
Method: Next, survival assays were performed with all the analogs at once to generate a low-variability dataset. All compounds were evaluated at concentrations ranging from 0.1-3.0 μM (five-point dilution) in three technical replicates and two biological replicates.

[2] = read-out: % Enzyme Activity Remaining (relative to DMSO controls), MLK1/MAP3K9, Data 1
[3] = read-out: % Enzyme Activity Remaining (relative to DMSO controls), MLK1/MAP3K9, Data 2
[4] = Homo sapiens, Neuron, read-out: EC50

SMILES | remaining activity at 0.1 µM (MLK1/MAP3K9; [2]) [%] | remaining activity at 0.1 µM (MLK1/MAP3K9; [3]) [%] | % Enzyme Activity Remaining (relative to DMSO controls), MLK3/MAP3K11, Data 1 (MLK3/MAP3K11) [%] | % Enzyme Activity Remaining (relative to DMSO controls), MLK3/MAP3K11, Data 2 (MLK3/MAP3K11) [%] | remaining activity at 0.025 µM (HGK/MAP4K4) [%] | remaining activity at 0.1 µM (HGK/MAP4K4) [%] | EC50 [1, 4] [nM] | viability at 1 µM ([1]; Homo sapiens, Neuron) [%] | Emax ([1]; Homo sapiens, Neuron) [%] | EC50 [1]
COC(=O)Nc1ccc(-c2c[nH]c3ncc(-c4ccc(CN5CCN(C)CC5)cc4)cc23)cc1 [Compound 7an, Methyl (4-(5-(4-((4-methylpiperazin-1-yl)methyl)phenyl)-1H-pyrrolo[2,3-b]pyridin-3-yl)phenyl)carbamate] | 68.7 | 65.4 | 65.74 | 63.06 | 39.9 | 10.2 | 534 | 75 | 100 | –
CN1CCN(Cc2ccc(-c3cnc4[nH]cc(-c5ccc(S(C)(=O)=O)nc5)c4c3)cc2)CC1 [Compound 7u, 5-(4-((4-Methylpiperazin-1-yl)methyl)phenyl)-3-(6-(methylsulfonyl)pyridin-3-yl)-1H-pyrrolo[2,3-b]pyridine] | 93.9 | 95.9 | 92.02 | 90.70 | 92.9 | 52.3 | 4600 | 33 | 72.9 | –
CN1CCN(Cc2ccc(-c3cnc4[nH]cc(-c5ccc6[nH]ncc6c5)c4c3)cc2)CC1 [Compound 7v, 5-(5-(4-((4-Methylpiperazin-1-yl)methyl)phenyl)-1H-pyrrolo[2,3-b]pyridin-3-yl)-1H-indazole] | 43 | 44 | 33.57 | 32.45 | 13.8 | 2.9 | 143 | 115 | 128 | –
Cc1ccc(C)c(-c2c[nH]c3ncc(-c4ccc(CN5CCN(C)CC5)cc4)cc23)c1 [Compound 7af, 3-(2,5-Dimethylphenyl)-5-(4-((4-methylpiperazin-1-yl)methyl)phenyl)-1H-pyrrolo[2,3-b]pyridine] | 92.6 | 90.6 | 75.32 | 81.31 | 69 | 38.7 | 1340 | 38.6 | 67.5 | –
CN1CCN(Cc2ccc(-c3cnc4[nH]cc(-c5cccc(OCc6ccccc6)c5)c4c3)cc2)CC1 [Compound 7ar, 3-(3-(Benzyloxy)phenyl)-5-(4-((4-methylpiperazin-1-yl)methyl)phenyl)-1H-pyrrolo[2,3-b]pyridine] | 70.1 | 68 | 44.17 | 45.09 | 55.5 | 27.4 | 583 | 37.4 | 37.4 | –
COc1ccc(COc2ccc(-c3c[nH]c4ncc(-c5ccc(CN6CCN(C)CC6)cc5)cc34)cc2)cc1 [Compound 7ao, 3-(4-((4-Methoxybenzyl)oxy)phenyl)-5-(4-((4-methylpiperazin-1-yl)methyl)phenyl)-1H-pyrrolo[2,3-b]pyridine] | 49 | 47.1 | 35.75 | 32.77 | 21.3 | 1.98 | – | 95.9 | 95.9 | Ambiguous
CN1CCN(Cc2ccc(-c3cnc4[nH]cc(-c5cccc(N)c5)c4c3)cc2)CC1 [Compound 7h, 3-(5-(4-((4-Methylpiperazin-1-yl)methyl)phenyl)-1H-pyrrolo[2,3-b]pyridin-3-yl)aniline] | 48.8 | 43.2 | 62.91 | 63.31 | 98.8 | 87.4 | 177 | 106 | 115 | –
